In ChEMBL document CHEMBL1152371, “Effect of varying chain length between P(1) and P(1') position of tripeptidomimics on activity of angiotensin-converting enzyme inhibitors” (Bioorg Med Chem Lett, 2009) one finds inhibition data, which are given here for eight molecules.

One may read the inhibition as how much of the control response was suppressed.

The target of the experiment is T1, Angiotensin-converting enzyme (Oryctolagus cuniculus) (UniProt P12822).
T1 sequence (whole entry): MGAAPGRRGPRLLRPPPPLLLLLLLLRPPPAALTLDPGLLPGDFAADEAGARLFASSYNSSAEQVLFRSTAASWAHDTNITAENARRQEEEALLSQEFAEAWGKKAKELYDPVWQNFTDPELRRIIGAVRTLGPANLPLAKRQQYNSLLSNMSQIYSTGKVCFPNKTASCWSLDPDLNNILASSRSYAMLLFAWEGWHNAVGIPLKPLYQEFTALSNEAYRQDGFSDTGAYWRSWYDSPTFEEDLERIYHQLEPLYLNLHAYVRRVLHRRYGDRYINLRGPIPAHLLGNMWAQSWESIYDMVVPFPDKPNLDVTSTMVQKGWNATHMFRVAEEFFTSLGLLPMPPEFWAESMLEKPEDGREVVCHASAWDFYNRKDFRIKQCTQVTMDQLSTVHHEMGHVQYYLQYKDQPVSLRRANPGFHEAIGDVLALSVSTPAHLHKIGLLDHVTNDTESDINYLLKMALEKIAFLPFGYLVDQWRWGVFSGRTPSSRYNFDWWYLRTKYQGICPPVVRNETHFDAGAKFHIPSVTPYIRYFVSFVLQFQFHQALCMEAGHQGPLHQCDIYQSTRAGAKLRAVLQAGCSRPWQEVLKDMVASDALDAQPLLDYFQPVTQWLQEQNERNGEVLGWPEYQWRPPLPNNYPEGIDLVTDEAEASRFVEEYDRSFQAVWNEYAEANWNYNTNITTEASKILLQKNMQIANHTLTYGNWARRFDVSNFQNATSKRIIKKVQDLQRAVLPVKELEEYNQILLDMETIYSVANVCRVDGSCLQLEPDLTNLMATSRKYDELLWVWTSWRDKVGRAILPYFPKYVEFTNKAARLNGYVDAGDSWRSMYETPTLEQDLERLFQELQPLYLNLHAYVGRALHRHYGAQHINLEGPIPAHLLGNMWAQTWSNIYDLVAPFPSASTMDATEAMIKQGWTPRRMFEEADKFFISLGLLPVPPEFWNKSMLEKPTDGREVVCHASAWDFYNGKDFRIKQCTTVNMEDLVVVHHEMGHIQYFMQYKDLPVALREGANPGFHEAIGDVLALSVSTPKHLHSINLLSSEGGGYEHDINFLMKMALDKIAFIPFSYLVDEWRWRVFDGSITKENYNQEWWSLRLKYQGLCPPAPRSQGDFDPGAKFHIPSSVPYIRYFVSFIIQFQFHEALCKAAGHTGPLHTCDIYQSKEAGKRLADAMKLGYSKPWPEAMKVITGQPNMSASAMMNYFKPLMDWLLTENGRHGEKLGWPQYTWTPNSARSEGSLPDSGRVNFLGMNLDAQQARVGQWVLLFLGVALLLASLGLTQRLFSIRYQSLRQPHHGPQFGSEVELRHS
Briefly: Inhibition of rabbit lung ACE activity relative to control. Set-up: concentration or dose not given beside the values. Conditions: concentration not given here.

For the molecule `NCCC[C@H](NC(=O)c1ccsc1)C(=O)N1CCC[C@H]1C(=O)O`, the inhibition is 23.7%. In turn, `NCCC[C@H](NC(=O)CCCc1c[nH]c2ccccc12)C(=O)N1CCC[C@H]1C(=O)O` came in with an inhibition of 33.8%. `NCCC[C@H](NC(=O)CCc1ccsc1)C(=O)N1CCC[C@H]1C(=O)O` gave an inhibition of 72.7%. Molecule `NCCC[C@H](NC(=O)CCCc1ccsc1)C(=O)N1CCC[C@H]1C(=O)O` yielded an inhibition of 37.2%. `NCCC[C@H](NC(=O)c1c[nH]c2ccccc12)C(=O)N1CCC[C@H]1C(=O)O`: the inhibition was 27.7%. For the molecule `NCCC[C@H](NC(=O)Cc1c[nH]c2ccccc12)C(=O)N1CCC[C@H]1C(=O)O`, the inhibition is 38.5%. In turn, `NCCC[C@H](NC(=O)Cc1ccsc1)C(=O)N1CCC[C@H]1C(=O)O` showed an inhibition of 35.6%. To `NCCC[C@H](NC(=O)CCc1c[nH]c2ccccc12)C(=O)N1CCC[C@H]1C(=O)O` belongs 59.7%.
